A short description of data set [1]: Single oral dose toxicity. Format: in vivo. Conditions: mouse, oral, single dosage of 100 mg/kg. As to the method: No toxicity is observed when a physiologically effective amount of the cyclopentenone derivative or an optical isomer thereof, or a salt thereof obtained according to the present invention is administered.
Data set [2] has as its system λ-carrageenan pedal edema. Description: Carrageenan induced pedal edema. Format: in vivo, Lewis rats. Conditions: rat, 3 hours after carrageenan. The method, then: Lewis rats (male, 9 weeks old, weighing about 250 g) were purchased from Seac Yoshitomi.
Rats were fasted from 18 hours before the start of the experiments. Dipropionylcyclopentenone, dihexanoylcyclopentenone, di-2-hexenoylcyclopentenone, diisobutyrylcyclopentenone or dibenzoylcyclopentenone dissolved in olive oil (Nacalai Tesque) was orally administered to 4 rats per group at 1 or 10 mg/10 ml/kg.
100 μl of 1% λ-carrageenan (Wako Pure Chemical Industries) suspension in saline (Otsuka Pharmaceutical) was injected into the sole of right paw of a rat 0.5 hour after the administration of test substance to induce pedal edema. The volume of the right foot of the rat was measured using an instrument for measuring pedal volume (Ugo Basile) 3 hours after the injection with carrageenan. The measurements were expressed as the rate of increase calculated based on the volume of the right foot of each rat measured before the administration with carrageenan.
FIG. 5 illustrate the relationship between the amount of cyclopentenone derivative administered and the rate of increase in edema in foot. The horizontal axis represents the dose […] and the vertical axis represents the rate of increase (%).
(In general: Carrageenan injected into the paw causes an acute inflammation.)

A further data set concerns the target T1, topoisomerase I (Homo sapiens, UniProt P11387).
T1 construct: purchased TopoGEN
T1 sequence (P11387 1-765): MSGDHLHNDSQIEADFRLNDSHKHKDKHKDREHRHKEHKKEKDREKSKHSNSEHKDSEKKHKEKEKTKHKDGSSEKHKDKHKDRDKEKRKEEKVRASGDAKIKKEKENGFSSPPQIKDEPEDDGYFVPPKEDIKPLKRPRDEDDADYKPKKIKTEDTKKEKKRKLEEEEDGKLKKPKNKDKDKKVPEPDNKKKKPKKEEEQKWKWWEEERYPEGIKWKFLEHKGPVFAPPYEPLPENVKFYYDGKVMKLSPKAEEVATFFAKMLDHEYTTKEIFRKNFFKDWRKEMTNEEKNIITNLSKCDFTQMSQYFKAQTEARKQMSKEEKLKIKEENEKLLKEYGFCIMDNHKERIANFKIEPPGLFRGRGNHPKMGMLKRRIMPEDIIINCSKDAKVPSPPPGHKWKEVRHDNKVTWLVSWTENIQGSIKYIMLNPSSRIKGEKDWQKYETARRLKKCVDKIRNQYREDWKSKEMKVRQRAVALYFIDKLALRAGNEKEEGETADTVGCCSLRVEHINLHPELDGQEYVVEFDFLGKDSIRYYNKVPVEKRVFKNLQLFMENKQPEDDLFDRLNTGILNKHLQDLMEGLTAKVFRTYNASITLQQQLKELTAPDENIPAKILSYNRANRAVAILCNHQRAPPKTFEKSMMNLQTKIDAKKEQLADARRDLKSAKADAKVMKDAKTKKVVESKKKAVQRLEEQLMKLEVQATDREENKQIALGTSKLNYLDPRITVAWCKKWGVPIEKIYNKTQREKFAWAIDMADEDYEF
Description: Topoisomerase I inhibition, pBR322 DNA relaxation. Format: biochemical. As to conditions: 37° C., 30 minutes. As to the method:
(1) 2 μl of topoisomerase II (TopoGEN; 2 units/μl), 2 μl of 10-fold concentrated buffer [0.5 M Tris-HCl (pH 8.0), 1.2 M KCl, 0.1 M MgCl2, 2.5 mM adenosine triphosphate, 5 mM dithiothreitol], 2 μl of 0.1% bovine serum albumin (Takara Shuzo), 11 μl of distilled water and 2 μl of distilled water (control) or 2 μl of one of aqueous solutions of dipropionylcyclopentenone, diisobutyrylcyclopentenone, dibenzoylcyclopentenone, dihexanoylcyclopentenone, di-2-hexenoylcyclopentenone, dimethoxyacetylcyclopentenone, dimethylfumarylcyclopentenone or dimethylmaleylcyclopentenone at varying concentrations were mixed together. 1 μl of 0.25 μg/μl pBR322 DNA (Takara Shuzo) was added thereto. The resulting mixture was reacted at 37° C. After reacting for 30 minutes, 2 μl of an aqueous solution containing 1% sodium dodecyl sulfate, 50% glycerol and 0.02% Bromophenol Blue was added thereto to stop the reaction. […]
(2) The activity of inhibiting topoisomerase I of each of the cyclopentenone derivatives was determined as described in Example 3-(1) except that topoisomerase I (TopoGEN; 0.01 unit/μl) was used in place of topoisomerase II and a solution containing 100 mM Tris-HCl (pH 7.9), 10 mM EDTA, 1 mM spermidine and 50% glycerol was used as 10-fold concentrated buffer.

In a further data set the test system is HSP70. As to conditions: cited from earlier work.

The values that follow come from patent publication US6548543B1, “Remedies or preventives containing cyclopentenone compounds as the active ingredient” (Takara Shuzo Co., Ltd., priority 1998, dated 2003).

Consider `O=C(OC1C=CC(=O)C1OC(=O)c1ccccc1)c1ccccc1` (centres unmarked), for which the “Death after single oral administration” value in data set [1] is “no death was observed”. The “Suppression of edema in foot (FIG. 5)” value is given as “Tendency of suppression” in data set [2] (1 mg/kg oral) and “significant suppression” in data set [2] (10 mg/kg oral). Besides, the “Concentration at which change of DNA from superhelical type to relaxed type was partially or completely inhibited” value on topoisomerase I was at least 50 µM.

For `O=C1C=CCC1` [2-cyclopenten-1-one], in the data set on HSP70, the “Concentration required for inducing HSP70” value is recorded as “several hundred”.
